Test results: ChEMBL document CHEMBL5108031, “Novel N-(4-thiocyanatophenyl)-1H-1,2,3-triazole-4-carboxamides exhibit selective cytotoxic activity at nanomolar doses towards human leukemic T-cells” (Eur J Med Chem, 2022)
Active and inactive are the calls of the source. The calls are words filed in the database; no cut-off is given here.

What was measured:
[1] = tested on: HeLa; experiment: Antiproliferative activity against human HeLa cells incubated for 72 hrs and measured by MTT assay; format: functional
[2] = tested on: HCT-116; experiment: Antiproliferative activity against human HCT-116 cells incubated for 72 hrs and measured by MTT assay; format: functional
[3] = tested on: HEK293; experiment: Antiproliferative activity against human HEK293 cells incubated for 72 hrs and measured by MTT assay; format: functional
[4] = tested on: MDA-MB-231; experiment: Antiproliferative activity against human MDA-MB-231 cells incubated for 72 hrs and measured by MTT assay; format: functional
[5] = tested on: THP-1; experiment: Antiproliferative activity against human THP-1 cells incubated for 72 hrs and measured by MTT assay; format: functional
[6] = tested on: BALB/3T3; experiment: Antiproliferative activity against mouse BALB/3T3 cells incubated for 72 hrs and measured by MTT assay; format: functional
[7] = tested on: WM793; experiment: Antiproliferative activity against human WM793 cells incubated for 72 hrs and measured by MTT assay; format: functional
[8] = tested on: KB 3-1; experiment: Antiproliferative activity against human KB 3-1 cells incubated for 72 hrs and measured by MTT assay; format: functional
[9] = tested on: SK-OV-3; experiment: Antiproliferative activity against human SK-OV-3 cells incubated for 72 hrs and measured by MTT assay; format: functional
[10] = tested on: K562; experiment: Antiproliferative activity against human K562 cells incubated for 72 hrs and measured by MTT assay; format: functional
[11] = tested on: HaCaT; experiment: Antiproliferative activity against human HaCaT cells incubated for 72 hrs and measured by MTT assay; format: functional
[12] = tested on: HCT-116; experiment: Antiproliferative activity against p53-deficient human HCT-116 cells incubated for 72 hrs and measured by MTT assay; format: functional
[13] = tested on: MCF7; experiment: Antiproliferative activity against human MCF7 cells incubated for 72 hrs and measured by MTT assay; format: functional
[14] = tested on: Jurkat; experiment: Antiproliferative activity against human Jurkat cells incubated for 72 hrs and measured by MTT assay; format: functional
[15] = tested on: A549; experiment: Antiproliferative activity against human A549 cells incubated for 72 hrs and measured by MTT assay; format: functional
[16] = tested on: Jurkat; experiment: Induction of apoptosis in human Jurkat cells assessed as cellular membrane blebbing at 0.5 uM measured after 24 hrs by Hoechst 33342/propidium iodide staining based fluorescence microscopic analysis; format: functional, cell-based
[17] = tested on: Jurkat; experiment: Induction of DNA damage in human Jurkat cells assessed as DNA fragmentation at 0.5 uM measured by Diphenylamine assay; format: functional
[18] = tested on: Jurkat; experiment: Induction of apoptosis in human Jurkat cells assessed as decrease in mitochondrial membrane potential at 0.5 uM measured after 24 hrs by Rhodamine 123 fluorescence based assay; format: functional, cell-based
[19] = tested on: DNA; experiment: Binding affinity to DNA (unknown origin) assessed as DNA intercalation at 1 uM by measuring amount of methyl green dye replaced from DNA-methyl green complex; format: nucleic-acid assay; conditions: Homo sapiens
[20] = tested on: Jurkat; experiment: Induction of apoptosis in human Jurkat cells assessed as condensed chromatin at 0.5 uM measured after 24 hrs by Hoechst 33342/propidium iodide staining based fluorescence microscopic analysis; format: functional, cell-based
[21] = tested on: DNA; experiment: Binding affinity to DNA (unknown origin) assessed as DNA intercalation at 10 uM by measuring amount of methyl green dye replaced from DNA-methyl green complex; format: nucleic-acid assay; conditions: Homo sapiens
[22] = tested on: Jurkat; experiment: Induction of apoptosis in human Jurkat cells assessed as fragmented DNA and nuclei at 0.5 uM measured after 24 hrs by Hoechst 33342/propidium iodide staining based fluorescence microscopic analysis; format: functional, cell-based
[23] = tested on: Jurkat; experiment: Induction of apoptosis in human Jurkat cells assessed as cell debris at 0.5 uM measured after 24 hrs by Hoechst 33342/propidium iodide staining based fluorescence microscopic analysis; format: functional
[24] = tested on: Jurkat; experiment: Induction of apoptosis in human Jurkat cells assessed as appearance of apoptotic bodies at 0.5 uM measured after 24 hrs by Hoechst 33342/propidium iodide staining based fluorescence microscopic analysis; format: functional, cell-based
[25] = tested on: Jurkat; experiment: Induction of DNA damage in human Jurkat cells assessed as olive tail moment at 0.5 uM measured after 24 hrs by comet assay; format: functional
[26] = species: Homo sapiens; experiment: Inhibition of electrophoretic mobility of Plasmid DNA pEGFPc-1 (unknown origin) incubated for 6 hrs at 1 uM and measured by agarose gel electrophoresis method
[27] = tested on: Jurkat; experiment: Induction of DNA damage in human Jurkat cells assessed as tail DNA at 0.5 uM measured after 24 hrs by comet assay; format: functional
[28] = target: DNA topoisomerase 2-alpha (Homo sapiens, UniProt P11388); experiment: Inhibition of DNA topoisomerase 2 alpha (unknown origin) measured by topoisomerase-mediated DNA relaxation assay
Chain of DNA topoisomerase 2-alpha (P11388 whole entry): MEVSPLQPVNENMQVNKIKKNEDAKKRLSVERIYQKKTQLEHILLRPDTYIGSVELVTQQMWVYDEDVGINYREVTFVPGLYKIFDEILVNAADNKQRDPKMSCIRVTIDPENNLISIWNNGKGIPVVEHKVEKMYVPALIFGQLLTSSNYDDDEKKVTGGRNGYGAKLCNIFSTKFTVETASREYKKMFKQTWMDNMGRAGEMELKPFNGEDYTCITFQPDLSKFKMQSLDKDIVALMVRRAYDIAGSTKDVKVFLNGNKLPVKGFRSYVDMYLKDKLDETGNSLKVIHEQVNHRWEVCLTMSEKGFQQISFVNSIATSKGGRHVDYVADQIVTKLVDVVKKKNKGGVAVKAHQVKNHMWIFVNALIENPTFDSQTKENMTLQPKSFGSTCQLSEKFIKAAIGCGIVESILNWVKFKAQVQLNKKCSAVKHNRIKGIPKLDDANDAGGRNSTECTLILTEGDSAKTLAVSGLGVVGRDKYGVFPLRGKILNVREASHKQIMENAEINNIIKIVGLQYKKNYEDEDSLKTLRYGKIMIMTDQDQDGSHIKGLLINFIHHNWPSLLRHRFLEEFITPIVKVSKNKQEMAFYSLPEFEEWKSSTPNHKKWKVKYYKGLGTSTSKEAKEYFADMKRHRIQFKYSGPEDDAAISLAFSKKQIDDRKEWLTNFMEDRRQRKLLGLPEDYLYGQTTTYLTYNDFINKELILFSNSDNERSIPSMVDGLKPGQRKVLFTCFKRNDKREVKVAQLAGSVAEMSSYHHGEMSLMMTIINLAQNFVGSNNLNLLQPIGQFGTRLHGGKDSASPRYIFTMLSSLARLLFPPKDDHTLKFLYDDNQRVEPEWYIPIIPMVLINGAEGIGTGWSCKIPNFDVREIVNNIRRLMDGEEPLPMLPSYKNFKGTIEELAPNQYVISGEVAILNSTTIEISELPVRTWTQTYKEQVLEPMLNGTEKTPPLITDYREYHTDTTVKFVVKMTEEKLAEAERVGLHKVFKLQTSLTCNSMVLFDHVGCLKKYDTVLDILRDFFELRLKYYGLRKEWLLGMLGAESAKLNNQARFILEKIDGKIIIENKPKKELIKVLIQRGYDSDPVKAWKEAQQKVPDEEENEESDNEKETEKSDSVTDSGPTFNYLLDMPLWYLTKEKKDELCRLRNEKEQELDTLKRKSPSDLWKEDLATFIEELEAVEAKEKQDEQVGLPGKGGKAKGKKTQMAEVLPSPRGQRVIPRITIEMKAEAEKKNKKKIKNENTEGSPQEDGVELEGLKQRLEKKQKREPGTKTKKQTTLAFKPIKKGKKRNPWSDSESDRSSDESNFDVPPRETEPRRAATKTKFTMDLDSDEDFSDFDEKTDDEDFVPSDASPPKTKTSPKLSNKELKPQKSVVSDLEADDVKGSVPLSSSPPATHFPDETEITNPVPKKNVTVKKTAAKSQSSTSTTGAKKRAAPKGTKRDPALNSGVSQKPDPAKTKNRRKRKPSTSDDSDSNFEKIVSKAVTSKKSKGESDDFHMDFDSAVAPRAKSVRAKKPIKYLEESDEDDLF

Cc1ccc(Cl)cc1-n1nnc(C(=O)Nc2ccc(SC#N)cc2)c1C
GI50 [1]: 91.3 µM | GI50 [2]: 39.6 µM | GI50 [3]: 91.2 µM | GI50 [4]: 44.6 µM | GI50 [5]: > 100 µM | GI50 [6]: 9.9 µM | GI50 [7]: 72.8 µM | GI50 [8]: 7.8 µM | GI50 [9]: 81.5 µM | GI50 [10]: 5.7 µM | GI50 [11]: > 100 µM | GI50 [12]: 8.2 µM | GI50 [13]: 8.4 µM | GI50 [14]: 0.68 µM | GI50 [15]: > 100 µM

CCCc1c(C(=O)Nc2ccc(SC#N)cc2)nnn1-c1ccccc1
GI50 [1]: 48.8 µM | GI50 [2]: 42.3 µM | GI50 [3]: > 100 µM | GI50 [4]: > 100 µM | GI50 [5]: > 100 µM | GI50 [6]: 96.9 µM | GI50 [7]: 65.7 µM | GI50 [8]: 7.8 µM | GI50 [9]: 73.7 µM | GI50 [10]: 1.4 µM | GI50 [11]: > 100 µM | GI50 [12]: 39.6 µM | GI50 [13]: 52 µM | GI50 [14]: 0.63 µM | GI50 [15]: > 100 µM

COc1cccc2c1C(=O)c1c(O)c3c(c(O)c1C2=O)C[C@@](O)(C(=O)CO)C[C@@H]3O[C@H]1C[C@H](N)[C@H](O)[C@H](C)O1 [DOXORUBICIN]
GI50 [1]: 0.76 µM | GI50 [2]: 0.76 µM | GI50 [3]: 0.8 µM | Activity [16]: Active | Activity [17]: 64% | GI50 [4]: 0.76 µM | GI50 [5]: 23.1 µM | Activity [18]: Active | Activity [19]: 49.1% | GI50 [6]: 0.62 µM | Activity [20]: Active | GI50 [7]: 0.9 µM | Activity [21]: 54.2% | GI50 [8]: 0.74 µM | Activity [22]: Active | GI50 [9]: 8.8 µM | GI50 [10]: 0.7 µM | GI50 [11]: 0.9 µM | Activity [23]: Active | Activity [24]: Active | GI50 [12]: 0.5 µM | GI50 [13]: 0.82 µM | Activity [25]: 5.4 | GI50 [14]: 0.65 µM | inhibition [26]: Active | GI50 [15]: 1.1 µM | Activity [27]: 20.3%

COc1cc([C@@H]2c3cc4c(cc3[C@@H](NC(=O)c3cn(-c5ccc(Cl)cc5)nn3)[C@H]3COC(=O)[C@H]23)OCO4)cc(OC)c1OC
IC50 [28]: < 1 µM

Cc1ccc(-n2nnc(C(=O)Nc3ccc(SC#N)cc3)c2C)cc1C
GI50 [1]: > 100 µM | GI50 [2]: > 100 µM | GI50 [3]: > 100 µM | GI50 [4]: > 100 µM | GI50 [5]: > 100 µM | GI50 [6]: 9.8 µM | GI50 [7]: 72.4 µM | GI50 [8]: 61 µM | GI50 [9]: > 100 µM | GI50 [10]: 9.2 µM | GI50 [11]: > 100 µM | GI50 [12]: > 100 µM | GI50 [13]: 72 µM | GI50 [14]: 0.68 µM | GI50 [15]: > 100 µM
